The text below walks through data of patent publication US20260265234A1, “RUPATIFEN FUMARATE CRYSTAL FORM C, AND PREPARATION METHOD THEREFOR AND USE THEREOF” (FUJIAN MINDONG REJUENATION PHARMACEUTICAL CO., LTD., priority 2022, published 2026).

Common to all, as to assay type: physicochemical
A short description of data set [1]: Fluidity detection: angle of repose by fixed cone bottom method. Conditions: average of three, <30° fluidity better, >40° poor. From the text:
Measurement of angle of repose: a fixed cone bottom method was used, the funnel was fixed on a horizontal coordinate paper at a proper height, so that the distance from a lower opening of the funnel to the coordinate paper was H, the powder was carefully poured into the funnel until the tip of a cone formed below the funnel contacted an outlet of the funnel, the radius r of the cone can be measured by the coordinate paper, and measured three times continuously, and the average value was taken as the result. The angle of repose a was calculated as follows: […]
Judgment standard: when the angle of repose is <30°, the fluidity is better. When the angle of repose is >40°, the fluidity is poor.

A short description of data set [2]: Solubility analysis in water and media of different pH, HPLC. To be noted: for solubility thermodynamic: thermodynamic from solid, read-out: Concentration. As to the method: The excessive test sample was put into a dissolution instrument cup, added with water and an appropriate amount of water-soluble medium with different pH values (pH=1.2, 2.2, 4.0, 4.5, 5.5, 6.8), stirred at 37° C.±1° C. (rotation speed: 100 r/min) for dissolution (more than 6 hours) to form a […] solution, the saturated solution was filtered, the filtrate was diluted with a mobile phase by corresponding times, the concentration was measured by HPLC method, and the solubility was calculated.

Data set [3] is described as follows: Oil-water distribution coefficient log P (n-octanol-water) by HPLC retention time. To be noted: HPLC retention time against standards of known log P. From the text: The standard substance having known log P (n-octanol-water) was used, the log P (n-octanol-water) of the substance to be tested was detected by HPLC. The principle is based on the fact that the retention time of chemical substances in a long hydrocarbon chain chromatographic column such as C18 column is related to their hydrocarbon-water distribution coefficient. Hydrophilic substances are eluted first, lipophilic substances are eluted later, and the oil-water distribution coefficient and the retention time are in a linear relationship, and the equation is as follows: [formula] [formula] log P: oil-water partition coefficient of samples (n-octanol-water); T0: dead time (measured by uracil here); Tn: retention time of samples by HPLC; according to the above formula, a linear relationship formula can be established by detecting the retention time of the standard substance and the known log P (n-octanol-water). The theoretical value of log P is used as the ordinate, the log K value is used as the abscissa for drawing, the values of a and b are obtained through calculation, and then the retention time (namely the log K value in the table) of samples to be detected is substituted into the equation to calculate the log P (n-octanol-water) value of samples.

A short description of data set [4]: Hygroscopicity analysis (weight gain, Chinese Pharmacopoeia 2020 guideline 9103). Conditions: 25° C.±1° C., 24 hours; for Weight Gain: constant humidity. As to the method:
1) a dry glass weighing bottle with a plug (with an outer diameter of 50 mm and a height of 15 mm) was taken and placed in a proper constant-temperature dryer (the lower part was placed with ammonium chloride or ammonium sulfate saturated solution) at 25° C.±1° C. one day before the test; and the weight of the weighing bottle was precisely measured (m 1).
2) a proper amount of the test sample was taken, tiled in the weighing bottle, wherein the thickness of the test sample was about 1 mm, and the weight of the test sample was precisely measured (m 2). 3) the weighing bottle was opened, and placed with its bottle cap under the constant temperature and humidity conditions for 24 hours.
4) the bottle cap was covered well and the weight of […] was precisely measured (m 3).
According to 9103 guideline principle on drug hygroscopicity test in four part of Chinese Pharmacopoeia 2020 edition, the description of hygroscopicity characteristics and the definition of hygroscopicity weight gain are as follows:
Deliquescence: enough water is absorb to form liquid.
Extremely hygroscopic: the weight gain due to hygroscopicity is not less than 15%.
Hygroscopic: the weight gain due to hygroscopicity is less than 15% but not less than 2%.
Slightly hygroscopic: the weight gain due to hygroscopicity is less than 2% but not less than 0.2%.
No or almost no hygroscopicity: the weight gain due to hygroscopicity is less than 0.2%.

Setting [5] is: Water for injection, 37° C.±1° C.

Like-named read-outs stand apart in the source and are kept apart here.

Turning to `Cc1cncc(CN2CCC(=C3c4ccccc4CC(=O)c4sccc43)CC2)c1.O=C(O)/C=C/C(=O)O` [Crystalline form A, 4-[1-[(5-methylpyridin-3-yl)methyl]piperidyl-4-ylidene]-4,9-dihydro-10H-benzo[4,5]cycloheptyl[1,2-b]thiophen-10-one fumarate], the “Angle of Repose” value in data set [1] is given as 47°. Also, the Concentration came out at 1790 µg/mL in data set [2] (setting [5]); 26680 µg/mL in data set [2] (pH = 1.2, 37° C.±1° C.); 3000 µg/mL in data set [2] (pH = 2.2, 37° C.±1° C.); 2290 µg/mL in data set [2] (pH = 4.0, 37° C.±1° C.); 2990 µg/mL in data set [2] (pH = 4.5, 37° C.±1° C.); 340 µg/mL in data set [2] (pH = 5.5, 37° C.±1° C.). Besides, the “Equilibrium Solubility” value in data set [2] (setting [5]) was found to be 448.75 mg/250 ml; in data set [2] (pH = 1.2, 37° C.±1° C.), 6669.86 mg/250 ml; in data set [2] (pH = 2.2, 37° C.±1° C.), 751.00 mg/250 ml; in data set [2] (pH = 4.0, 37° C.±1° C.), 571.88 mg/250 ml; in data set [2] (pH = 4.5, 37° C.±1° C.) it was 747.72 mg/250 ml; in data set [2] (pH = 5.5, 37° C.±1° C.), 84.93 mg/250 ml. Moreover, in data set [2] (pH = 6.8, 37° C.±1° C.), the “Equilibrium Solubility” value is 3.39 mg/250 ml. Moreover, in data set [3], the “log P (n-octanol-water)” value is on record as 2.8. Further, the Hygroscopicity entry in data set [4] is reported as “Slightly hygroscopic (the weight gain due to hygroscopicity is less than 2% but not less than 0.2%)”. Also, the “Weight Gain” value in data set [4] is listed as 0.3%.
Broadly, the chromatographic logP is lipophilicity estimated from chromatographic retention. A lower chromatographic logP goes with a more hydrophilic compound. Take `Cc1cncc(CN2CCC(=C3c4ccccc4CC(=O)c4sccc43)CC2)c1.O=C(O)/C=C/C(=O)O` [Crystalline form B, 4-[1-[(5-methylpyridin-3-yl)methyl]piperidyl-4-ylidene]-4,9-dihydro-10H-benzo[4,5]cycloheptyl[1,2-b]thiophen-10-one fumarate]: the “Angle of Repose” value in data set [1] is on record as 50°. Further, the Concentration in data set [2] (setting [5]) is 1220 µg/mL; in data set [2] (pH = 1.2, 37° C.±1° C.), 29420 µg/mL; in data set [2] (pH = 2.2, 37° C.±1° C.) it was 2640 µg/mL; in data set [2] (pH = 4.0, 37° C.±1° C.) it was 1410 µg/mL; in data set [2] (pH = 4.5, 37° C.±1° C.), 1360 µg/mL. Further, the “Equilibrium Solubility” value in data set [2] (setting [5]) was 305.45 mg/250 ml; in data set [2] (pH = 1.2, 37° C.±1° C.) it was 7355.56 mg/250 ml; in data set [2] (pH = 2.2, 37° C.±1° C.), 659.74 mg/250 ml; in data set [2] (pH = 4.0, 37° C.±1° C.), 352.76 mg/250 ml; in data set [2] (pH = 4.5, 37° C.±1° C.), 339.48 mg/250 ml; in data set [2] (pH = 5.5, 37° C.±1° C.) it was 44.97 mg/250 ml. Moreover, the “Equilibrium Solubility” value in data set [2] (pH = 6.8, 37° C.±1° C.) amounted to 2.56 mg/250 ml. In addition, the solubility thermodynamic in data set [2] (water-soluble medium of pH 5.5, 37 °C, pH 5.5, aqueous buffer, pH = 5.5, 37° C.±1° C.) came out at 180 µg/mL; in data set [2] (water-soluble medium of pH 6.8, 37 °C, pH 6.8, aqueous buffer, pH = 6.8, 37° C.±1° C.) it was 10 µg/mL. Besides, the chromatographic logP in data set [3] is 2.9. Also, the Hygroscopicity entry in data set [4] is “Slightly hygroscopic (the weight gain due to hygroscopicity is less than 2% but not less than 0.2%)”. Besides, the “Weight Gain” value in data set [4] is given as 0.2%.
On to `Cc1cncc(CN2CCC(=C3c4ccccc4CC(=O)c4sccc43)CC2)c1.O=C(O)/C=C/C(=O)O` [Crystalline form C, 4-[1-[(5-methylpyridin-3-yl)methyl]piperidyl-4-ylidene]-4,9-dihydro-10H-benzo[4,5]cycloheptyl[1,2-b]thiophen-10-one fumarate], for which the “Angle of Repose” value in data set [1] is reported as 28°; in data set [1] (listed as crystalline form C), “less than 30 °”. Further, the Concentration in data set [2] (setting [5]) was 2460 µg/mL; in data set [2] (pH = 4.0, 37° C.±1° C.), 2840 µg/mL; in data set [2] (pH = 4.5, 37° C.±1° C.), 3770 µg/mL; in data set [2] (pH = 5.5, 37° C.±1° C.) it was 310 µg/mL; in data set [2] (pH = 6.8, 37° C.±1° C.), 18 µg/mL. The “Equilibrium Solubility” value in data set [2] (setting [5]) turned out to be 616.34 mg/250 ml; in data set [2] (pH = 1.2, 37° C.±1° C.) it was 4908.73 mg/250 ml; in data set [2] (pH = 2.2, 37° C.±1° C.) it was 1013.35 mg/250 ml; in data set [2] (pH = 4.0, 37° C.±1° C.) it was 710.90 mg/250 ml; in data set [2] (pH = 4.5, 37° C.±1° C.), 942.80 mg/250 ml; in data set [2] (pH = 5.5, 37° C.±1° C.), 77.90 mg/250 ml. In data set [2] (pH = 6.8, 37° C.±1° C.), the “Equilibrium Solubility” value is 4.40 mg/250 ml. For the same compound, in data set [2] (medium with pH=6.8), the “solubility according to the classification system of biopharmaceuticals” value is recorded as “slightly superior to that of other crystal forms”. For the same compound, the solubility thermodynamic was 19600 µg/mL in data set [2] (water-soluble medium of pH 1.2, 37 °C, pH 1.2, simulated gastric fluid, pH = 1.2, 37° C.±1° C.) and 4050 µg/mL in data set [2] (water-soluble medium of pH 2.2, 37 °C, pH 2.2, aqueous buffer, pH = 2.2, 37° C.±1° C.). The “log P (n-octanol-water)” value in data set [3] is reported as 3.2. The Hygroscopicity result in data set [4] is listed as “No or almost no hygroscopicity (the weight gain due to hygroscopicity is less than 0.2%)”. In addition, the “Weight Gain” value in data set [4] is on record as 0.06%.
In the case of `Cc1cncc(CN2CCC(=C3c4ccccc4CC(=O)c4sccc43)CC2)c1.O=C(O)/C=C/C(=O)O` [Mixed crystal, 4-[1-[(5-methylpyridin-3-yl)methyl]piperidyl-4-ylidene]-4,9-dihydro-10H-benzo[4,5]cycloheptyl[1,2-b]thiophen-10-one fumarate], in data set [1], the “Angle of Repose” value stood at 49°. Further, the Concentration came to 1980 µg/mL in data set [2] (setting [5]); 24470 µg/mL in data set [2] (pH = 1.2, 37° C.±1° C.); 3400 µg/mL in data set [2] (pH = 2.2, 37° C.±1° C.); 2530 µg/mL in data set [2] (pH = 4.0, 37° C.±1° C.); 3430 µg/mL in data set [2] (pH = 4.5, 37° C.±1° C.). For the same compound, the “Equilibrium Solubility” value in data set [2] (setting [5]) turned out to be 495.71 mg/250 ml; in data set [2] (pH = 1.2, 37° C.±1° C.), 6117.84 mg/250 ml; in data set [2] (pH = 2.2, 37° C.±1° C.) it was 849.73 mg/250 ml; in data set [2] (pH = 4.0, 37° C.±1° C.), 633.71 mg/250 ml; in data set [2] (pH = 4.5, 37° C.±1° C.), 856.32 mg/250 ml; in data set [2] (pH = 5.5, 37° C.±1° C.), 76.85 mg/250 ml. Also, the “Equilibrium Solubility” value in data set [2] (pH = 6.8, 37° C.±1° C.) is 3.61 mg/250 ml. Besides, the “log P (n-octanol-water)” value in data set [3] is listed as 2.7. Also, the Hygroscopicity result in data set [4] is “Slightly hygroscopic (the weight gain due to hygroscopicity is less than 2% but not less than 0.2%)”. For the same compound, the “Weight Gain” value in data set [4] is 0.4%.
